Like-named read-outs stand apart in the source and are kept apart here.
What was measured:
[1] = biological target: T1, recombinant HIV-1 reverse transcriptase (Human immunodeficiency virus type 1 group M subtype B, UniProt P03366); assay: Reverse transcriptase assay with rAdT and rCdG template/primer; assay type: biochemical; conditions: for IC50: Table 7, high dose test of 100 µM
T1 construct: using recombinant HIV-1 reverse transcriptase; S. Hughes, ABL Basic Research NCI-FCRDC, Frederick MD (supplied, not a catalogue product)
Experimental: (§1) The 5-bromovaleroyl thioester, compound 44, and two 5-pyridiniovaleroyl thioesters, compounds 45 and 47, were analyzed in mechanistic and target-based assays. […] Assays for activity against HIV-1 reverse transcriptase rAdT (template/primer) and rCdG (template/primer) using recombinant HIV-1 reverse transcriptase (S. Hughes, ABL Basic Research NCI-FCRDC, Frederick MD) were performed as described by Rice (1997) supra. Substrate cleavage of recombinant HIV-1 protease in the presence of test compounds using an HPLC-based methodology with the artificial substrate Ala-Ser-Glu-Asn-Try- Pro-Ile-Val-amide (Multiple Peptide Systems, San Diego CA) was performed as described by Rice (1997) supra. The ability of recombinant HIV-1 integrase (S. Hughes, ABL Basic Research NCI-FCRDC, Frederick MD) to carry out 3' processing and strand transfer activities in the presence of test compounds was performed as described by Buckheit (1994) AIDS Res. Hum. Retroviruses 10:1497-1506, and Turpin (1998) Antimicrob. Agents Chemother. 42: 487-494.

Pr^55gag precursor = biological target: T2, Pr^55gag precursor (Human immunodeficiency virus type 1 group M subtype B, UniProt P03347); assay: Gag precursor cross-linking and processing in TNFα-induced U1 cells, Western blotting; assay type: cell-based, HIV-1; conditions: for cross-linking of viral precursor polyproteins: TNFα-induced U1 cells, Western blotting; for Pr^55gag precursor processing: after reduction with β-ME, compound 45 at 100 µM
T2 construct: Visualization of viral proteins from TNFα-induced U1 cells by electrophoretic separation and immunoblotting; endogenous in cells; host or cells: TNFα-induced U1 cells (integrated HIV-1 provirus)
Experimental: Thiolester compounds were also tested for their ability to inhibit HIV-1 replication in TNFα-induced U1 and ACH-2 cells. U1 cells were induced with 5 ng/ml of TNFα in the presence of various concentrations of the thiolesters 44, 45 or 47. Forty-eight hours later the cultures were characterized for virus p24 antigen production and cell viability. […] Compound 44 killed 60% of the cells at 200 µM. […] Precursor processing evaluation performed as described by Turpin (1997) Antiviral Chem. Chemother. 8:60-69. Thus, thiolester PATEs initiate intracellular disulfide cross-linking of precursor polyproteins during late phase virus assembly and mediate a direct virucidal effect via an attack on the mature NCp7 retroviral zinc fingers in the cell-free virus.
Virion cross linking was performed as described by Rice (1995) Science 270:1194-1197 and Turpin (1997) Antiviral Chem. Chemother. 8:60-67. Briefly, highly purified HIV-1 MN (11.8 µg total protein) was incubated for 2 hour with concentrations of compound. Virions were concentrated and residual compound was removed by centrifugation (18,000 x g, 1 h, 4°C). The viral pellet was solubilized in 0.5 M Tris-HCl,(pH 6.8), 50% glycerol, 8% SDS and 0.4% bromophenol blue and proteins resolved by Western blotting. Western blotting to detect the expression of HIV-1 proteins in U1 cells or virus pellets for virion cross-linking experiments was carried out as described by Turpin (1996) J. Virol. 70:6180-6189. Briefly, 50 µg of total cellular protein for U1 experiments or the total virion pellet (11.8 µg total viral protein) for NCp7 cross linking studies was resolved on 4 to 20% polyacrylamide gels in SDS with Tris-Glycine (Novex, San Diego CA). Samples for reduced gels were boiled for 5 min in the presence of 5% β-ME prior to loading. Resolved proteins were electroblotted on to polyvinylidene difluoride (PVDF) membranes, and HIV-1 specific proteins were detected using a mixture of goat anti- HIV-1 NCp7 and p24 or anti-NCp7 for virion proteins alone (a kind gift of L. E. Henderson, AIDS Vaccine Program NCI-FCRDC, Frederick, MD). Western blots were developed using standard chemiluminescence methodologies, as produced and described by Dupont-NEN, Wilmington, DE.

[2] = biological target: T3, recombinant HIV-1 protease (Human immunodeficiency virus type 1 group M subtype B, UniProt P03366); assay: HPLC-based protease substrate cleavage assay; assay type: biochemical; conditions: for IC50: Table 7, high dose test of 100 µM, read-out: Protease I50
T3 construct: Substrate cleavage of recombinant HIV-1 protease
Experimental: as §1

[3] = tested on: fusion of the HL2/3 and MAGI-CCR-5 cells; assay: Fusion assay, HL2/3 and MAGI-CCR-5 co-culture with beta-galactosidase reporter; assay type: cell-based; conditions: for IC50: Table 7, read-out: Fusion I50
Experimental: Determination of the effect of the test compounds on viral fusion were carried out as follows. Briefly, HL2/3 cells stably expressing HIV-1 Tat and cell surface gp120 and MAGI-CCR-5 cells stably expressing CD4 and CCR5 on their cell surface, containing a β-galactosidase reporter gene under the control of the HIV-1 LTR were pretreated with test compound for 1 h at 37°C. After incubation, the cells were mixed in a 4 to 1 ratio (2 x 10^5 MAGI-CCR-5 to 8 x 10^5 HL2/3 cells) and co-cultured for 18 h at 37°C; cultures were fixed and stained with X-gal solution for β-galactosidase activity. Blue cells represented the Tat transactivation of the HIV-1 LTR upon fusion of the HL2/3 and MAGI-CCR-5 cells via the CD4/CCR5 co-receptor gp 120 interaction.

[4] = rAdT template/primer, read-out: Reverse transcriptase rAdT I50
[5] = rCdG template/primer, read-out: Reverse transcriptase rCdG I50

Row | Compound | inhibition of HIV-1 reverse transcriptase enzyme activity [1] | IC50 [1, 4] | IC50 [1, 5] | cross-linking of viral precursor polyproteins (Pr^55gag precursor) | inhibition of HIV-1 protease enzyme activity [2] | IC50 [2] | inhibition of fusion to host cells [3] | IC50 [3] | Pr^55gag precursor processing (Pr^55gag precursor)
1 | CC(=O)NS(=O)(=O)c1ccc(NC(=O)c2ccccc2SC(=O)CCCCBr)cc1 [Compound 44, N-[2-(5-bromovaleroylthio)benzoyl]sulfacetamide] | did not inhibit | > 100 µM | > 100 µM | induced β-ME reversible alterations in the mobility of zinc finger containing HIV-1 precursor proteins | did not inhibit | > 100 µM | did not inhibit | > 100 µM | –
2 | CC(=O)NS(=O)(=O)c1ccc(NC(=O)c2ccccc2SC(=O)CCCC[n+]2ccccc2)cc1 [Compound 45, N-[2-(5-pyridinio-valeroylthio)benzoyl]sulfacetamide bromide] | did not inhibit | > 100 µM | > 100 µM | induced cross-linking of viral precursor polyproteins | did not inhibit | > 100 µM | did not inhibit | 77 µM | inhibited Pr^55gag precursor processing
3 | O=C(CCCC[n+]1ccccc1)Sc1ccccc1C(=O)Nc1ccc(S(=O)(=O)c2ccc([N+](=O)[O-])cc2)cc1 [Compound 47] | did not inhibit | – | – | induced cross-linking of viral precursor polyproteins | did not inhibit | – | did not inhibit | 99 µM | inhibited Pr^55gag precursor processing

— patent EP1087941B9, “THIOLESTERS AND USES THEREOF” (THE UNITED STATES OF AMERICA, as represented by THE …, priority 1998, dated 1999)
